In patent US9815846B2 (Merck Sharp & Dohme Corp., priority 2014, dated 2017) one finds IC50 data, which are given here for 23 compounds.

Sequence of human TrkA receptor (P04629 33-796): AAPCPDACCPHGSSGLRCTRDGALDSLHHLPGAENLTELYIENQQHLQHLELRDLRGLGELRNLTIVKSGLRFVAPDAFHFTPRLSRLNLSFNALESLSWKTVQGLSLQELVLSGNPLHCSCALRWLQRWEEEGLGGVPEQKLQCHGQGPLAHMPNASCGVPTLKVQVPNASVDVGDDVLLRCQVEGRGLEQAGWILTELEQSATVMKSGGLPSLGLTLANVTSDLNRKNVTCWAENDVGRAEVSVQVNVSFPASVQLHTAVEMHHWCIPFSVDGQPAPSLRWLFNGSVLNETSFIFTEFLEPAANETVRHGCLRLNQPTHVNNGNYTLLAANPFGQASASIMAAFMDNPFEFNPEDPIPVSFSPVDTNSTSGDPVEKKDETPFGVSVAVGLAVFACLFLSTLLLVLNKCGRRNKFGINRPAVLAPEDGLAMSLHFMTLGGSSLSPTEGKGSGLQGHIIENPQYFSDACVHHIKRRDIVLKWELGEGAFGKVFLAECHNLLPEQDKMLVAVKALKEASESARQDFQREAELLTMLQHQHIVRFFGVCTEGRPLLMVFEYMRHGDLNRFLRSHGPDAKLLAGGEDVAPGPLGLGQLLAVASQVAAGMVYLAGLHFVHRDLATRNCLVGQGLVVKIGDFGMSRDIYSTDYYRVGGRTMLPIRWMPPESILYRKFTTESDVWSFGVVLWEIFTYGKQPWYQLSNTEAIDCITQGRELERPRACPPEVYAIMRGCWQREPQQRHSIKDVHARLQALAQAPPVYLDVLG

This assay has as its target human TrkA receptor (Homo sapiens (Human), UniProt P04629). In words: DiscoverX PathHunter TrkA functional assay (NGF-stimulated U2OS cells). The format is cell-based. Conditions: U2OS cells expressing human TrkA-PK, Shc1-EA and p75NTR; compound 1 h, then NGF at ~80% of maximal response for 3 h; luminescence.
For `Cn1ccc(-c2cc(C(=O)Nc3cnc(CC(=O)N4CCNCC4)nc3-c3ccccc3)c(F)cc2C(F)(F)F)n1` [Example 114, 2-fluoro-5-(1-methyl-1H-pyrazol-3-yl)-N-(2-(2-oxo-2-(piperazin-1-yl)ethyl)-4-phenylpyrimidin-5-yl)-4-(trifluoromethyl)benzamide], the IC50 turned out to be 3 nM. This lies in the single-digit nanomolar range.

On to `Cc1ncc(NC(=O)c2cc(-c3ncccn3)c(Cl)cc2F)c(-c2ccccc2)n1` [Example 2, 4-Chloro-2-fluoro-N-(2-methyl-4-phenylpyrimidin-5-yl)-5-(pyrimidin-2-yl)benzamide], for which the IC50 was 100 nM. Against the preceding compound, the IC50 is about 33-fold higher.

In the case of `Cn1ccc(-c2cc(C(=O)Nc3cnc(CN4CCOC4=O)nc3-c3ccccc3)c(F)cc2C(F)(F)F)n1` (single isomer, unassigned) [Example 218], the IC50 is 0.14 nM. This IC50 lies about 710-fold lower than the previous one.

`Cn1ccc(-c2cc(C(=O)Nc3cnc(C4NC(=O)NC4=O)nc3-c3ccccc3)c(F)cc2C(F)(F)F)n1` (centres unmarked) [Example 131, N-(2-(2,5-Dioxoimidazolidin-4-yl)-4-phenylpyrimidin-5-yl)-2-fluoro-5-(1-methyl-1H-pyrazol-3-yl)-4-(trifluoromethyl)benzamide] yielded an IC50 of 4.4 nM.

`Cc1cc(-c2ccccc2NC(=O)c2cccc(-c3nccs3)c2)n[nH]1` [Example 7, N-[2-(5-methyl-1H-pyrazol-3-yl)phenyl]-3-(1,3-thiazol-2-yl)benzamide] gave an IC50 of 4000 nM.

In the case of `Cc1ncc(NC(=O)c2cc(C3CCC(C)O3)c(C(F)(F)F)cc2F)c(-c2ccccc2)n1` (centres unmarked) [Example 33, 2-fluoro-N-(2-methyl-4-phenylpyrimidin-5-yl)-5-(5-methyltetrahydrofuran-2-yl)-4-(trifluoromethyl)benzamide], the IC50 was determined as 56 nM. Compared with the last compound, the IC50 is about 71-fold lower.

`Cn1ccc(-c2cc(C(=O)Nc3cnc(CC4CC(=O)NC4=O)nc3-c3ccccc3)c(F)cc2C(F)(F)F)n1` (centres unmarked) [Example 201, N-(2-((2,5-Dioxopyrrolidin-3-yl)methyl)-4-phenylpyrimidin-5-yl)-2-fluoro-5-(1-methyl-1H-pyrazol-3-yl)-4-(trifluoromethyl)benzamide] displayed an IC50 of 2.8 nM.

On to `Cn1ccc(-c2cc(C(=O)Nc3cc(CC(N)=O)cnc3-c3ccccc3)ccc2C(F)(F)F)n1` [Example 203, N-(5-(2-amino-2-oxoethyl)-2-phenylpyridin-3-yl)-3-(1-methyl-1H-pyrazol-3-yl)-4-(trifluoromethyl)benzamide], for which the IC50 amounted to 6 nM.

With `Cc1ncc(NC(=O)c2cccc(-n3nccc3C(F)(F)F)c2)c(-c2ccccc2)n1` [Example 14, N-(2-methyl-4-phenylpyrimidin-5-yl)-3-[5-(trifluoromethyl)-1H-pyrazol-1-yl]benzamide], the concentration for half-maximal inhibition (IC50) came out at 590 nM.

Compound `Cc1ncc(NC(=O)c2cc(-c3ccn(C)n3)c(C(F)(F)F)cc2F)c(-c2ccccc2CCN(C)C)n1` [Example 135, N-(4-(2-(2-(Dimethylamino)ethyl)phenyl)-2-methylpyrimidin-5-yl)-2-fluoro-5-(1-methyl-1H-pyrazol-3-yl)-4-(trifluoromethyl)benzamide] came in with an IC50 of 0.57 nM.

`Cn1ccc(-c2cc(C(=O)Nc3cc4c(nc3-c3ccccc3)CCN(C(N)=O)C4)c(F)cc2C(F)(F)F)n1` [Example 154, 3-(2-fluoro-5-(1-methyl-1H-pyrazol-3-yl)-4-(trifluoromethyl)benzamido)-2-phenyl-7,8-dihydro-1,6-naphthyridine-6(5H)-carboxamide]: the IC50 came to 0.76 nM.

For `Cc1cnn(-c2ccncc2NC(=O)c2ccc(C(F)(F)F)c(-c3ccn(C)n3)c2)c1` [Example 19, 3-(1-methyl-1H-pyrazol-3-yl)-N-[4-(4-methyl-1H-pyrazol-1-yl)pyridin-3-yl]-4-(trifluoromethyl)benzamide], the IC50 was 25 nM.

Turning to `Cn1ccc(-c2cc(C(=O)Nc3ccc(C4CNC(=O)C4)nc3-c3ccccc3)c(F)cc2C(F)(F)F)n1` (single isomer, unassigned) [Example 198, (R or S)-2-Fluoro-5-(1-methyl-1H-pyrazol-3-yl)-N-(6-(5-oxopyrrolidin-3-yl)-2-phenylpyridin-3-yl)-4-(trifluoromethyl)benzamide], the IC50 worked out at 0.57 nM. This IC50 is about 44-fold lower than that of the compound before.

As for `Cn1ccc(-c2cc(C(=O)Nc3cnc(C(N)C(N)=O)nc3-c3ccccc3)c(F)cc2C(F)(F)F)n1` (centres unmarked) [Example 130, N-(2-(1,2-Diamino-2-oxoethyl)-4-phenylpyrimidin-5-yl)-2-fluoro-5-(1-methyl-1H-pyrazol-3-yl)-4-(trifluoromethyl)benzamide], half-maximal inhibition (IC50) was put at 4.6 nM.

Consider `Cn1ccc(-c2cc(C(=O)Nc3cc4c(nc3-c3ccccn3)CCNC4=O)c(F)cc2C(F)(F)F)n1` [Example 141, 2-Fluoro-5-(1-methyl-1H-pyrazol-3-yl)-N-(5-oxo-2-(pyridin-2-yl)-5,6,7,8-tetrahydro-1,6-naphthyridin-3-yl)-4-(trifluoromethyl)benzamide], for which the midpoint of inhibition, the IC50, lay at 14 nM.

As for `Cc1nc(CO)c(NC(=O)c2ccc(C(F)(F)F)c(-c3ccn(C)n3)c2)c(-c2ccccc2)n1` [Example 46, N-(4-(Hydroxymethyl)-2-methyl-6-phenylpyrimidin-5-yl)-3-(1-methyl-1H-pyrazol-3-yl)-4-(trifluoromethyl)benzamide], the midpoint of inhibition, the IC50, lay at 24 nM.

With `Cc1ncc(NC(=O)c2ccc(C)c(F)c2F)c(-c2ccccc2)n1` [Example 8, 2,3-difluoro-4-methyl-N-(2-methyl-4-phenylpyrimidin-5-yl)benzamide], the IC50 came to 4300 nM.

Take `Cc1ncc(NC(=O)c2ccc(C(F)(F)F)c(-c3ccn(C)n3)c2)c(-c2ccc(F)cc2)n1` [Example 31, N-[4-(4-fluorophenyl)-2-methylpyrimidin-5-yl]-3-(1-methyl-1H-pyrazol-3-yl)-4-(trifluoromethyl)benzamide]: the half-maximal inhibitory concentration (IC50) is 5.5 nM.

`Cn1ccc(-c2cc(C(=O)Nc3cnc(NCC(N)=O)nc3-c3ccccc3)c(F)cc2C(F)(F)F)n1` [Example 213, N-(2-((2-amino-2-oxoethyl)amino)-4-phenylpyrimidin-5-yl)-2-fluoro-5-(1-methyl-1H-pyrazol-3-yl)-4-(trifluoromethyl)benzamide]: the IC50 is 1.4 nM.

`O=C(Nc1cc2c(nc1-c1ccccc1)CCNC2)c1cc(-c2ccccn2)c(C(F)(F)F)cc1F` [Example 146, 2-fluoro-N-(2-phenyl-5,6,7,8-tetrahydro-1,6-naphthyridin-3-yl)-5-(pyridin-2-yl)-4-(trifluoromethyl)benzamide] registered an IC50 of 13 nM.

`Cn1ccc(-c2cc(C(=O)Nc3ccc(CN4C(=O)CNC4=O)nc3-c3ccccc3)c(F)cc2C(F)(F)F)n1` [Example 98, N-(6-((2,5-dioxoimidazolidin-1-yl)methyl)-2-phenylpyridin-3-yl)-2-fluoro-5-(1-methyl-1H-pyrazol-3-yl)-4-(trifluoromethyl)benzamide]: half-maximal inhibition (IC50) was put at 0.22 nM.

The compound `Cn1ccc(-c2cc(C(=O)Nc3ccc(C4CN(C(=O)CO)C4)nc3-c3ccccc3)c(F)cc2C(F)(F)F)n1` [Example 206, 2-Fluoro-N-(6-(1-(2-hydroxyacetyl)azetidin-3-yl)-2-phenylpyridin-3-yl)-5-(1-methyl-1H-pyrazol-3-yl)-4-(trifluoromethyl)benzamide] returned an IC50 of 1.3 nM.

As to `NC(=O)c1cnc(-c2cnc(-c3ccccc3)c(NC(=O)c3cc(-c4ncccn4)c(C(F)(F)F)cc3F)c2)nc1` [Example 169, 2-(5-(2-fluoro-5-(pyrimidin-2-yl)-4-(trifluoromethyl)benzamido)-6-phenylpyridin-3-yl)pyrimidine-5-carboxamide], the IC50 was 0.59 nM.
